Measured values as given in patent US9119853B2, “Sanglifehrin based compounds” (priority 2010, dated 2015).
pEC50, pIC50: −log10 of the molar value. ≈ marks a conversion by molar mass, not a printed value. Where two headings read alike, the source gives them in different places.

What was measured:
Solubility in PBS pH 7.4 = settings: for solubility compared to sanglifehrin A (5) and cyclosporine A (1) (in words): PBS pH 7.4; for solubility at 4 h: PBS, pH 7.4, aqueous buffer, kinetic from dmso stock
[1] = Anti-metabolic effect (MTS) in the replicon cell line; settings: human
[2] = test system: HCV genotype 1b I389luc-ubi-neo/NS3-3'/5.1 replicon in Huh5.2 cells; test: microbe, parasite or virus in culture; format: cell-based, Hepatitis C Virus
[3] = pH 7.4
[4] = biological target: T1, GST-CypD / Con1 NS5A-His complex (Homo sapiens, UniProt P30405); test: ELISA analysis of Cyp-NS5A interaction (CypD-NS5A disruption)
[5] = test system: peripheral blood mononuclear cells (PBMC); test: Mixed lymphocyte reaction (MLR) for immunosuppressant activity; format: cell-based, human
[6] = test system: HIV (pNL4.3-GFP / pNL4.3-BaL-GFP) in CD4+ HeLa cells; test: microbe, parasite or virus in culture; format: cell-based
[7] = test system: HIV (pNL4.3-GFP / pNL4.3-BaL-GFP) in macrophages; test: microbe, parasite or virus in culture; format: cell-based; settings: Human immunodeficiency virus 1, BAL, Macrophage, 48 h, read-out: Macrophages EC50
[8] = test system: HIV (pNL4.3-GFP / pNL4.3-BaL-GFP) in CD4+ T-lymphocytes; test: microbe, parasite or virus in culture; format: cell-based; settings: Human immunodeficiency virus 1, BAL, T-lymphocyte, 48 h, read-out: CD4+ T-lymphocytes EC50
physchem = settings: pH 7.4, aqueous buffer, kinetic from dmso stock
[9] = test system: HIV (pNL4.3-GFP / pNL4.3-BaL-GFP) in Jurkat cells; test: microbe, parasite or virus in culture; format: cell-based; settings: Human immunodeficiency virus 1, BAL, 48 h, read-out: T cells EC50
[10] = biological target: T1, GST-CypD / Con1 NS5A-His complex; test: biochemical
Huh5.2 cells = test: Anti-metabolic effect (MTS) in the replicon cell line; settings: Huh5.2 cells, MTS, 72 hours
[11] = Hepatitis C virus, Huh-5-2, 72 h

T1 sequence (P30405 30-207, one chain of several): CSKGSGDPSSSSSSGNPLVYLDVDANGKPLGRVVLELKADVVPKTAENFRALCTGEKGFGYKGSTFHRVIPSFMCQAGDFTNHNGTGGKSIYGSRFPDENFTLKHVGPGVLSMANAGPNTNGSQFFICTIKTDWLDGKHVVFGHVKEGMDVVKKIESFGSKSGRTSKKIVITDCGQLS

Row | Structure (SMILES) | solubility compared to sanglifehrin A (5) and cyclosporine A (1) (in words) (Solubility in PBS pH 7.4) | solubility at 4 h (Solubility in PBS pH 7.4) [µM] | CC50 at 72 h [1] [nM] | Selectivity index (CC50/EC50) [2] | potency in the Huh5.2 replicon assay (in words) [2] | pEC50 [2, 11] | EC90 [2, 11] [nM] | further results
1 | CON(C)C(=O)/C=C/C=C(\C)[C@@H]1C/C=C/C=C/[C@H](O)[C@H](C)[C@@H](O)[C@@H](CCC(C)=O)C(=O)N[C@@H](C(C)C)C(=O)N[C@@H](Cc2cccc(O)c2)C(=O)N2CCCC(N2)C(=O)O1 (some centres unmarked) [compound 10] | increased solubility | > 100 | > 100000 | >617 | very potent | 6.79 | 921 | 
2 | CCN(CC)C(=O)/C=C/C=C(\C)[C@@H]1C/C=C/C=C/[C@H](O)[C@H](C)[C@@H](O)[C@@H](CCC(C)=O)C(=O)N[C@@H](C(C)C)C(=O)N[C@@H](Cc2cccc(O)c2)C(=O)N2CCCC(N2)C(=O)O1 (some centres unmarked) [compound 13] | increased solubility | > 100 | > 100000 | >490 | very potent | 6.69 | 1200 | 
3 | CC(=O)CC[C@H]1C(=O)N[C@@H](C(C)C)C(=O)N[C@@H](Cc2cccc(O)c2)C(=O)N2CCCC(N2)C(=O)O[C@H](/C(C)=C/C=C/C(=O)NC(C)C)C/C=C/C=C/[C@H](O)[C@H](C)[C@H]1O (some centres unmarked) [compound 16] |  |  | > 100000 | >179 | very potent | 6.25 | 4600 | 
4 | CNC(=O)/C=C/C=C(\C)[C@@H]1C/C=C/C=C/[C@H](O)[C@H](C)[C@@H](O)[C@@H](CCC(C)=O)C(=O)N[C@@H](C(C)C)C(=O)N[C@@H](Cc2cccc(O)c2)C(=O)N2CCCC(N2)C(=O)O1 (some centres unmarked) [compound 19] | increased solubility | > 100 | > 100000 | >80 |  | 5.10 | 60200 | 
5 | CC(=O)CC[C@H]1C(=O)N[C@@H](C(C)C)C(=O)N[C@@H](Cc2cccc(O)c2)C(=O)N2CCCC(N2)C(=O)O[C@H](/C(C)=C/C=C/C(=O)N(C)C)C/C=C/C=C/[C@H](O)[C@H](C)[C@H]1O (some centres unmarked) [compound 22] | increased solubility | > 100 | > 100000 | >287 | very potent | 6.46 | 6200 | 
6 | C=CCNC(=O)/C=C/C=C(\C)[C@@H]1C/C=C/C=C/[C@H](O)[C@H](C)[C@@H](O)[C@@H](CCC(C)=O)C(=O)N[C@@H](C(C)C)C(=O)N[C@@H](Cc2cccc(O)c2)C(=O)N2CCCC(N2)C(=O)O1 (some centres unmarked) [compound 25] | increased solubility |  | 48400 |  |  | 5.80 | 8500 | Solubility [3]: 96 µM (≈ 78.7 µg/mL)
7 | C/C=C/C[C@H]1C(=O)N[C@@H](C(C)C)C(=O)N[C@@H](Cc2cccc(O)c2)C(=O)N2CCCC(N2)C(=O)O[C@H](/C(C)=C/C=C/C(=O)N(C)OC)C/C=C/C=C/[C@H](O)[C@H](C)[C@H]1O (some centres unmarked) [compound 28] | increased solubility | 78 (≈ 63 µg/mL) | 17700 | 28.2 | very potent | 6.20 | 4000 | 
8 | CC(=O)CC[C@H]1C(=O)N[C@@H](C(C)C)C(=O)N[C@@H](Cc2cccc(O)c2)C(=O)N2CCCC(N2)C(=O)O[C@H](/C(C)=C/C=C/C(=O)N(CC(C)C)CC(C)C)C/C=C/C=C/[C@H](O)[C@H](C)[C@H]1O (some centres unmarked) [compound 32] |  |  | 2100 |  | very potent | 6.51 | 1100 | Solubility [3]: 33 µM (≈ 29.4 µg/mL)
9 | CC(=O)CC[C@H]1C(=O)N[C@@H](C(C)C)C(=O)N[C@@H](Cc2cccc(O)c2)C(=O)N2CCCC(N2)C(=O)O[C@H](/C(C)=C/C=C/C(=O)Nc2ccc(-c3ccccc3)cc2)C/C=C/C=C/[C@H](O)[C@H](C)[C@H]1O (some centres unmarked) [compound 41] |  |  | > 100000 | >481 | very potent | 6.68 | 1100 | 
10 | CC(=O)CC[C@H]1C(=O)N[C@@H](C(C)C)C(=O)N[C@@H](Cc2cccc(O)c2)C(=O)N2CCCC(N2)C(=O)O[C@H](/C(C)=C/C=C/C(=O)N(C)C2CCCCC2)C/C=C/C=C/[C@H](O)[C@H](C)[C@H]1O (some centres unmarked) [compound 45] |  |  | 66400 | 449 | very potent | 6.83 | 1900 | 
11 | CC(=O)CC[C@H]1C(=O)N[C@@H](C(C)C)C(=O)N[C@@H](Cc2cccc(O)c2)C(=O)N2CCCC(N2)C(=O)O[C@H](/C(C)=C/C=C/C(=O)NC2CCCCC2)C/C=C/C=C/[C@H](O)[C@H](C)[C@H]1O (some centres unmarked) [compound 51] |  |  | > 100000 | >298 | very potent | 6.47 | 4200 | 
12 | CC(=O)CC[C@H]1C(=O)N[C@@H](C(C)C)C(=O)N[C@@H](Cc2cccc(O)c2)C(=O)N2CCCC(N2)C(=O)O[C@H](/C(C)=C/C=C/C(=O)N2CCCCO2)C/C=C/C=C/[C@H](O)[C@H](C)[C@H]1O (some centres unmarked) [compound 55] |  |  | > 100000 | >800 | very potent | 6.90 | 691 | disruption of the CypD-NS5A complex (in words) [4]: potent disruption; pIC50 ([5]; Homo sapiens, PBMC, read-out: Human MLR IC50): 5.84; immunosuppressive activity (in words) ([5]; MLR): very low levels of immunosuppressive activity; pEC50 ([6]; Human immunodeficiency virus 1, BAL, HeLa, 48 h, read-out: HeLa cells EC50): 6.51; potency at inhibiting HIV infection compared to cyclosporine A, 1 (in words) ([6]; four cell types): significantly more potent; pEC50 [7]: 6.64; pEC50 [8]: 6.82; Solubility (physchem): > 100 µM; pEC50 [9]: 6.66; pIC50 [10]: 6.64
13 | CC(=O)CC[C@H]1C(=O)N[C@@H](C(C)C)C(=O)N[C@@H](Cc2cccc(O)c2)C(=O)N2CCC[C@H](N2)C(=O)O[C@H](/C(C)=C/CO)C/C=C/C=C/[C@H](O)[C@H](C)[C@H]1O [hydroxymacrocycle, 6, reference compound] |  |  |  |  | less potent |  |  | CC50 (Huh5.2 cells): 83600 nM; pEC50 ([2]; read-out: EC50): 5.08; EC90 ([2]; read-out: EC90): 39700 nM
